Values after ≈ are worked out from the molar mass of the structure shown. Read-outs that look alike come from different tables or passages of the source.
Columns and labels:
Type in all cases: cell-based
[1] = tested on: Bacillus subtilis, ATCC 23857; assay: Minimal inhibitory concentration assay (microbroth dilution)
In short: (§1)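 Visual read-out; MIC is the lowest drug concentration with no bacterial growth after overnight aerobic incubation at 37 °C. Compound was tested in two-fold dilutions starting at 200 μM final, with an inoculum of approximately 10^5 cfu/mL, following CLSI microdilution guidance.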

[2] = tested on: Enterococcus faecalis, ATCC 33186; assay: as above
In short: as §1

[3] = tested on: Staphylococcus aureus, ATCC 29213; assay: as above; conditions: ATCC29213, read-out: Minimal Inhibitory Concentrations S. aureus ATCC 29213
In short: as §1

[4] = tested on: Staphylococcus aureus, NRS70; assay: as above
In short: as §1

[5] = tested on: Streptococcus pneumoniae, DAW27; assay: as above; conditions: DAW27, read-out: Minimal Inhibitory Concentrations S. pneumoniae DAW27
In short: as §1

[6] = tested on: Streptococcus pyogenes, ATCC 700294; assay: as above
In short: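 Plates with two-fold compound dilution series in broth were incubated overnight, aerobically, at 37° C, following CLSI microdilution guidance.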

[7] = tested on: Vero (kidney epithelial cells; ATCC CCL-81); assay: Cytotoxicity assay (CellTiter-Glo cell viability, 72 hours); conditions: Vero cells, 72 hours, growth inhibition; read-out: Cytotoxicity IC50
In short: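 Viability measured by CellTiter-Glo luminescence after 72-hour compound exposure (serial dilutions, DMSO control) of Vero monolayers seeded at 5000 cells/well in 10% FBS DMEM. IC50 values are the range of two biologically independent experiments, each run in duplicate.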

E. coli K12ΔtolC = assay: Minimal inhibitory concentration assay (microbroth dilution)
[8] = tested on: Staphylococcus aureus, USA 300; assay: Minimal inhibitory concentration assay; conditions: USA300, read-out: Minimal Inhibitory Concentrations S. aureus USA 300
In short: as §1

[9] = tested on: Staphylococcus aureus, USA 300 wherein ClpP is inactivated; assay: Minimal inhibitory concentration assay
In short: as §1

[10] = Bacillus subtilis, ATCC23857; read-out: Minimal Inhibitory Concentrations B. subtilis ATCC 23857
[11] = Enterococcus faecalis, ATCC33186; read-out: Minimal Inhibitory Concentrations E. faecalis ATCC 33186
[12] = Staphylococcus aureus, NRS70; read-out: Minimal Inhibitory Concentrations S. aureus NRS70
[13] = Streptococcus pyogenes, ATCC700294; read-out: Minimal Inhibitory Concentrations S. pyogenes ATCC 700294
[14] = Bacillus subtilis, ATCC23857, read-out: Minimal Inhibitory Concentrations B. subtilis ATCC 23857
[15] = Enterococcus faecalis, ATCC33186, read-out: Minimal Inhibitory Concentrations E. faecalis ATCC 33186
[16] = Staphylococcus aureus, NRS70, read-out: Minimal Inhibitory Concentrations S. aureus NRS70
[17] = Streptococcus pyogenes, ATCC700294, read-out: Minimal Inhibitory Concentrations S. pyogenes ATCC 700294

SMILES	MIC [1, 10] [µM]	MIC [2, 11] [µM]	MIC [3] [µM]	MIC [4, 12] [µM]	MIC [5] [µM]	MIC [6, 13] [µM]	IC50 [7] [µM]	MIC [1, 14] [µM]	MIC [2, 15] [µM]	MIC [4, 16] [µM]	MIC [6, 17] [µM]	Minimal Inhibitory Concentrations E. coli K12ΔtolC (E. coli K12ΔtolC) [µM]	MIC ([4]; S. aureus NRS70; read-out: Minimal Inhibitory Concentrations S. aureus NRS70) [µM]	MIC ([6]; S. pyogenes ATCC 700294; read-out: Minimal Inhibitory Concentrations S. pyogenes ATCC 700294) [µM]	MIC [8] [µM]	Minimal Inhibitory Concentrations S. aureus USA 300 ΔClpP [9] [µM]
CCc1cccc(NC(=O)N[C@@H](Cc2ccccc2)C(=O)N[C@H]2COC(=O)[C@@H]3C[C@@H](C)CN3C(=O)[C@H](C)NC(=O)[C@@H]3CCCCN3C(=O)[C@@H]3CCCN3C2=O)c1 [Compound 10, (S)—N-((2R,6S,8aS,14aS,20S,23aS)-2,6-dimethyl-5,8,14,19,23-pentaoxooctadecahydro-1H,5H,14H,19H-pyrido[2,1-i]dipyrrolo[2,1-c:2′,1′-l][1]oxa[4,7,10,13]tetraazacyclohexadecin-20-yl)-2-(3-(3-ethylphenyl)ureido)-3-phenylpropanamide]	0.6 (≈ 0.463 µg/mL)	0.3 (≈ 0.232 µg/mL)	0.6 (≈ 0.463 µg/mL)	0.6 (≈ 0.463 µg/mL)	0.3 (≈ 0.232 µg/mL)	0.6 (≈ 0.463 µg/mL)										
C[C@@H]1C[C@H]2C(=O)OC[C@H](NC(=O)[C@H](Cc3ccccc3)NC(=O)Nc3ccc4ccn(C)c4c3)C(=O)N3CCC[C@H]3C(=O)N3CCCC[C@H]3C(=O)N[C@@H](C)C(=O)N2C1 [Compound 12, (S)—N-((2R,6S,8aS,14aS,20S,23aS)-2,6-dimethyl-5,8,14,19,23-pentaoxooctadecahydro-1H,5H,14H,19H-pyrido[2,1-i]dipyrrolo[2,1-c:2′,1′-l][1]oxa[4,7,10,13]tetraazacyclohexadecin-20-yl)-2-(3-(1-methyl-1H-indol-6-yl)ureido)-3-phenylpropanamide]			2.5 (≈ 1.99 µg/mL)		0.3 (≈ 0.239 µg/mL)		90 ± 7.6	2.5 (≈ 1.99 µg/mL)	1.25 (≈ 0.996 µg/mL)	2.5 (≈ 1.99 µg/mL)	0.6 (≈ 0.478 µg/mL)					
C[C@@H]1C[C@H]2C(=O)OC[C@H](NC(=O)[C@H](Cc3ccccc3)NC(=O)Nc3ccc4c(c3)CCN4C)C(=O)N3CCC[C@H]3C(=O)N3CCCC[C@H]3C(=O)N[C@@H](C)C(=O)N2C1 [Compound 11, (S)—N-((2R,6S,8aS,14aS,20S,23aS)-2,6-dimethyl-5,8,14,19,23-pentaoxooctadecahydro-1H,5H,14H,19H-pyrido[2,1-i]dipyrrolo[2,1-c:2′,1′-l][1]oxa[4,7,10,13]tetraazacyclohexadecin-20-yl)-2-(3-(1-methylindolin-5-yl)ureido)-3-phenylpropanamide]			2.5 (≈ 2 µg/mL)		0.3 (≈ 0.24 µg/mL)		76 ± 10.6	1.25 (≈ 0.999 µg/mL)	0.6 (≈ 0.479 µg/mL)	1.25 (≈ 0.999 µg/mL)	0.6 (≈ 0.479 µg/mL)					
NC[C@H]1O[C@H](O[C@H]2[C@H](O)[C@@H](O[C@H]3O[C@H](CO)[C@@H](O)[C@H](N)[C@H]3O)[C@H](N)C[C@@H]2N)[C@H](O)[C@@H](O)[C@@H]1O [Kanamycin, kanamycin, reference compound]	0.1 (≈ 0.0485 µg/mL)	25 (≈ 12.1 µg/mL)	1.56 (≈ 0.756 µg/mL)	50 (≈ 24.2 µg/mL)	25 (≈ 12.1 µg/mL)	12.5 (≈ 6.06 µg/mL)						0.4				
C[C@@H]1C[C@H]2C(=O)OC[C@H](NC(=O)[C@H](Cc3ccccc3)NC(=O)Nc3ccc(N(C)C)cc3)C(=O)N3CCC[C@H]3C(=O)N3CCCC[C@H]3C(=O)N[C@@H](C)C(=O)N2C1 [Compound 5, (S)—N-((2R,6S,8aS,14aS,20S,23aS)-2,6-dimethyl-5,8,14,19,23-pentaoxooctadecahydro-1H,5H,14H,19H-pyrido[2,1-i]dipyrrolo[2,1-c:2′,1′-l][1]oxa[4,7,10,13]tetraazacyclohexadecin-20-yl)-2-(3-(4-(dimethylamino)phenyl)ureido)-3-phenylpropanamide]			6.25 (≈ 4.92 µg/mL)		0.39 (≈ 0.307 µg/mL)		91.3 ± 12.7	0.78 (≈ 0.614 µg/mL)	0.78 (≈ 0.614 µg/mL)	1.56 (≈ 1.23 µg/mL)	0.78 (≈ 0.614 µg/mL)	50				
CCc1ccc(NC(=O)N[C@@H](Cc2ccccc2)C(=O)N[C@H]2COC(=O)[C@@H]3C[C@@H](C)CN3C(=O)[C@H](C)NC(=O)[C@@H]3CCCCN3C(=O)[C@@H]3CCCN3C2=O)cc1 [Compound 4, (S)—N-((2R,6S,8aS,14aS,20S,23aS)-2,6-dimethyl-5,8,14,19,23-pentaoxooctadecahydro-1H,5H,14H,19H-pyrido[2,1-i]dipyrrolo[2,1-c:2′,1′-l][1]oxa[4,7,10,13]tetraazacyclohexadecin-20-yl)-2-(3-(4-ethylphenyl)ureido)-3-phenylpropanamide]	0.2 (≈ 0.154 µg/mL)	0.1 (≈ 0.0772 µg/mL)	0.78 (≈ 0.602 µg/mL)	0.39 (≈ 0.301 µg/mL)	0.04 (≈ 0.0309 µg/mL)	0.2 (≈ 0.154 µg/mL)						25				
COc1cccc(NC(=O)N[C@@H](Cc2ccccc2)C(=O)N[C@H]2COC(=O)[C@@H]3C[C@@H](C)CN3C(=O)[C@H](C)NC(=O)[C@@H]3CCCCN3C(=O)[C@@H]3CCCN3C2=O)c1 [Compound 8, (S)—N-((2R,6S,8aS,14aS,20S,23aS)-2,6-dimethyl-5,8,14,19,23-pentaoxooctadecahydro-1H,5H,14H,19H-pyrido[2,1-i]dipyrrolo[2,1-c:2′,1′-l][1]oxa[4,7,10,13]tetraazacyclohexadecin-20-yl)-2-(3-(3-methoxyphenyl)ureido)-3-phenylpropanamide]	3.13 (≈ 2.42 µg/mL)	1.56 (≈ 1.21 µg/mL)	3.13 (≈ 2.42 µg/mL)	3.13 (≈ 2.42 µg/mL)	0.39 (≈ 0.302 µg/mL)	0.78 (≈ 0.604 µg/mL)						200				
C[C@@H]1C[C@H]2C(=O)OC[C@H](NC(=O)[C@H](Cc3ccccc3)NC(=O)Nc3ccc(OC(F)(F)F)cc3)C(=O)N3CCC[C@H]3C(=O)N3CCCC[C@H]3C(=O)N[C@@H](C)C(=O)N2C1 [Compound 2, (S)—N-((2R,6S,8aS,14aS,20S,23aS)-2,6-dimethyl-5,8,14,19,23-pentaoxooctadecahydro-1H,5H,14H,19H-pyrido[2,1-i]dipyrrolo[2,1-c:2′,1′-l][1]oxa[4,7,10,13]tetraazacyclohexadecin-20-yl)-3-phenyl-2-(3-(4-(trifluoromethoxy)phenyl)ureido)propanamide]	0.2 (≈ 0.166 µg/mL)	0.02 (≈ 0.0166 µg/mL)			0.02 (≈ 0.0166 µg/mL)							12.5	0.20 (≈ 0.166 µg/mL)	0.10 (≈ 0.0828 µg/mL)		
C[C@@H]1C[C@H]2C(=O)OC[C@H](NC(=O)[C@H](Cc3cc(F)cc(F)c3)NC(=O)Nc3ccc(OC(F)(F)F)cc3)C(=O)N3CCC[C@H]3C(=O)N3CCCC[C@H]3C(=O)N[C@@H](C)C(=O)N2C1 [Compound 13, (S)-3-(3,5-difluorophenyl)-N-((2R,6S,8aS,14aS,20S,23aS)-2,6-dimethyl-5,8,14,19,23-pentaoxooctadecahydro-1H,5H,14H,19H-pyrido[2,1-i]dipyrrolo[2,1-c:2′,1′-l][1]oxa[4,7,10,13]tetraazacyclohexadecin-20-yl)-2-(3-(4-(trifluoromethoxy)phenyl)ureido)propanamide]	0.08 (≈ 0.0691 µg/mL)	0.04 (≈ 0.0346 µg/mL)	0.05 (≈ 0.0432 µg/mL)	0.8 (≈ 0.691 µg/mL)	0.04 (≈ 0.0346 µg/mL)	0.15 (≈ 0.13 µg/mL)										
CN(C)[C@@H]1C(O)=C(C(N)=O)C(=O)[C@@]2(O)C(O)=C3C(=O)c4c(O)cccc4[C@@](C)(O)[C@H]3C[C@@H]12 [Tetracycline, tetracycline, reference compound]	1.6 (≈ 0.711 µg/mL)	0.05 (≈ 0.0222 µg/mL)	0.1 (≈ 0.0444 µg/mL)	0.05 (≈ 0.0222 µg/mL)	0.1 (≈ 0.0444 µg/mL)	0.1 (≈ 0.0444 µg/mL)									0.1 (≈ 0.0444 µg/mL)	
CCc1ccc(NC(=O)N[C@@H](Cc2cc(F)cc(F)c2)C(=O)N[C@H]2COC(=O)[C@@H]3C[C@@H](C)CN3C(=O)[C@H](C)NC(=O)[C@@H]3CCCCN3C(=O)[C@@H]3CCCN3C2=O)cc1 [Compound 14, (S)-3-(3,5-difluorophenyl)-N-((2R,6S,8aS,14aS,20S,23aS)-2,6-dimethyl-5,8,14,19,23-pentaoxooctadecahydro-1H,5H,14H,19H-pyrido[2,1-i]dipyrrolo[2,1-c:2′,1′-l][1]oxa[4,7,10,13]tetraazacyclohexadecin-20-yl)-2-(3-(4-ethylphenyl)ureido)propanamide]	0.08 (≈ 0.0646 µg/mL)	0.04 (≈ 0.0323 µg/mL)	0.1 (≈ 0.0808 µg/mL)	0.08 (≈ 0.0646 µg/mL)	0.04 (≈ 0.0323 µg/mL)	0.8 (≈ 0.646 µg/mL)										
O=C(N[C@H](CO)[C@H](O)c1ccc([N+](=O)[O-])cc1)C(Cl)Cl [Chloroamphenicol, chloramphenicol, reference compound]	3.1 (≈ 1 µg/mL)	0.39 (≈ 0.126 µg/mL)	3.13 (≈ 1.01 µg/mL)	3.1 (≈ 1 µg/mL)	0.78 (≈ 0.252 µg/mL)							0.78			3.1 (≈ 1 µg/mL)	6.3
